How the values were obtained:
C. albicans = experiment: Antimicrobial activity by standard microbiological analysis (viability after exposure to test agent); type: cell-based; details: when 10 mM TBAH phase transfer agent is added
Method: The antimicrobial activity of certain formulations described herein was evaluated by a standard microbiological analysis. For the evaluation, bacterial and fungal isolates were grown overnight on appropriate agar media as source of fresh cells. A suspension of these fresh cells was prepared in saline at approximately 1×10^8 cfu/mL. These suspensions were added directly to the test agents (various solutions of sodium 2,2-dimethyl-N,N-dichlorotaurine and control solutions). The initial concentration of cells in the test agent solutions was approximately 1×10^6 cfu/mL. The exposure of microorganisms to the test agent was conducted at room temperature for up to 60 minutes. At selected times, an aliquot was withdrawn and diluted into phosphate buffered saline at 4° C. Viability was determined following serial dilution and filtration onto Milliflex cassettes.

[1] = Partitioning experiment, aqueous solution / dichloromethane; type: physicochemical; details: 4 mM compound, pH 4; for Log P: dichloromethane/aqueous; for 2,2-dimethyl-N,N-dichlorotaurine in aqueous After Partitioning % 2,2-dimethyl-N,N-dichlorotaurine: equal volume dichloromethane overnight
Method: Example 6 provides evidence of ion pairing taking place between a N-halogenated amino acid and a phase transfer agent, and the resulting changes in partitioning behavior. The partitioning experiment can be used to evaluate a compound's apparent lipophilicity and the potential improvement in antimicrobial activity when used on tissue.
Aqueous solutions were prepared containing 0.1% (4 mM) sodium 2,2-dimethyl-N,N-dichlorotaurine, tetrabutylammonium hydroxide (TBAH) at 0 mM, 1 mM, 4 mM, or 10 mM, 5 mM sodium acetate, sodium chloride to adjust osmolality to isotonic, and sodium hydroxide and/or hydrochloric acid to adjust pH to 4.
These aqueous solutions were assayed for 2,2-dimethyl-N,N-dichlorotaurine by reverse phase high pressure liquid chromatography. Each solution was then combined with an equal volume of dichloromethane, mixed on a rocker overnight, and the aqueous phase reassayed. The percent loss of 2,2-dimethyl-N,N-dichlorotaurine from the aqueous phase and theoretical percent of 2,2-dimethyl-N,N-dichlorotaurine partitioning to the dichloromethane were calculated and plotted versus the concentration of TBAH.
The theoretical percentage of 2,2-dimethyl-N,N-dichlorotaurine in dichloromethane phase is calculated as 100 percent minus the percent remaining in aqueous phase. FIG. 2 graphically illustrates the results of the above-described partitioning experiment. When 4 mM 2,2-dimethyl-N,N-dichlorotaurine in aqueous solution is combined with varying concentrations of TBAH, the quantity of 2,2-dimethyl-N,N-dichlorotaurine found in the aqueous solution decreases. Without added TBAH, almost all the 2,2-dimethyl-N,N-dichlorotaurine is found in the aqueous fraction. However, with 10 mM TBAH, most of the 2,2-dimethyl-N,N-dichlorotaurine has left the aqueous fraction and partitioned to the dichloromethane. This experiment is evidence of ion pair formation with TBAH phase transfer agent, which increases the apparent lipophilicity of the 2,2-dimethyl-N,N-dichlorotaurine.

**Q.** Which “antimicrobial activity (FIG. 1)” value (C. albicans) does the source give for `CC(C)(CS(=O)(=O)O)N(Cl)Cl` [2,2-dimethyl-N,N-dichlorotaurine] here?
**A.** Its value is “dramatically increased”.

**Q.** What about the “2,2-dimethyl-N,N-dichlorotaurine in aqueous After Partitioning % in Aqueous” value ([1]; TBAH 0 mM) of the same compound?
**A.** The value was 96.1%.

**Q.** And the “2,2-dimethyl-N,N-dichlorotaurine in aqueous Before Partitioning % 2,2-dimethyl-N,N-dichlorotaurine” value ([1]; TBAH 0 mM)?
**A.** Its value is 0.1007%.

**Q.** What about the “Calculated 2,2-dimethyl-N,N-dichlorotaurine % in CH2Cl2 After Partitioning Theory % in Dichloromethane” value ([1]; TBAH 0 mM) of the same compound?
**A.** Its value is 3.9%.

**Q.** And the “Log P” value ([1]; TBAH 0 mM)?
**A.** The value was −1.39.

**Q.** What about the “2,2-dimethyl-N,N-dichlorotaurine in aqueous After Partitioning % 2,2-dimethyl-N,N-dichlorotaurine” value ([1]; TBAH 0 mM) of the same compound?
**A.** Its value is 0.09675%.

**Q.** And the “2,2-dimethyl-N,N-dichlorotaurine in aqueous After Partitioning % in Aqueous” value ([1]; TBAH 1 mM)?
**A.** Its value is 76.1%.

**Q.** What about the “2,2-dimethyl-N,N-dichlorotaurine in aqueous Before Partitioning % 2,2-dimethyl-N,N-dichlorotaurine” value ([1]; TBAH 1 mM) of the same compound?
**A.** Its value is 0.1008%.

**Q.** And the “Calculated 2,2-dimethyl-N,N-dichlorotaurine % in CH2Cl2 After Partitioning Theory % in Dichloromethane” value ([1]; TBAH 1 mM)?
**A.** Its value is 23.9%.

**Q.** And the “Log P” value ([1]; TBAH 1 mM)?
**A.** The value was −0.50.

**Q.** What about the “2,2-dimethyl-N,N-dichlorotaurine in aqueous After Partitioning % 2,2-dimethyl-N,N-dichlorotaurine” value ([1]; TBAH 1 mM) of the same compound?
**A.** Its value is 0.07672%.

**Q.** What about the “2,2-dimethyl-N,N-dichlorotaurine in aqueous After Partitioning % in Aqueous” value ([1]; TBAH 4 mM) of the same compound?
**A.** The value was 35.4%.

**Q.** What about the “2,2-dimethyl-N,N-dichlorotaurine in aqueous Before Partitioning % 2,2-dimethyl-N,N-dichlorotaurine” value ([1]; TBAH 4 mM) of the same compound?
**A.** Its value is 0.1008%.

**Q.** What about the “Calculated 2,2-dimethyl-N,N-dichlorotaurine % in CH2Cl2 After Partitioning Theory % in Dichloromethane” value ([1]; TBAH 4 mM) of the same compound?
**A.** Its value is 64.6%.

**Q.** What about the “Log P” value ([1]; TBAH 4 mM) of the same compound?
**A.** Its value is 0.26.

**Q.** And the “2,2-dimethyl-N,N-dichlorotaurine in aqueous After Partitioning % 2,2-dimethyl-N,N-dichlorotaurine” value ([1]; TBAH 4 mM)?
**A.** The value was 0.03573%.

**Q.** And the “2,2-dimethyl-N,N-dichlorotaurine in aqueous After Partitioning % in Aqueous” value ([1]; TBAH 10 mM)?
**A.** Its value is 11.9%.

**Q.** What about the “2,2-dimethyl-N,N-dichlorotaurine in aqueous Before Partitioning % 2,2-dimethyl-N,N-dichlorotaurine” value ([1]; TBAH 10 mM) of the same compound?
**A.** Its value is 0.1009%.

**Q.** And the “Calculated 2,2-dimethyl-N,N-dichlorotaurine % in CH2Cl2 After Partitioning Theory % in Dichloromethane” value ([1]; TBAH 10 mM)?
**A.** The value was 88.1%.

**Q.** And the “Log P” value ([1]; TBAH 10 mM)?
**A.** Its value is 0.87.

**Q.** What about the “2,2-dimethyl-N,N-dichlorotaurine in aqueous After Partitioning % 2,2-dimethyl-N,N-dichlorotaurine” value ([1]; TBAH 10 mM) of the same compound?
**A.** Its value is 0.01198%.

— patent publication US20080275123A1, “N-HALOGENATED AMINO ACID FORMULATIONS” (ALCON RESEARCH, LTD., priority 2007, published 2008)
